# Reference: ChEMBL document CHEMBL3286226, “Discovery of thienopyrimidine-based FLT3 inhibitors from the structural modification of known IKKβ inhibitors” (Bioorg Med Chem Lett, 2014)
# What was measured:
# [1] = tested on: RAW264.7; experiment: cells; conditions: Mus musculus
# Description: (§1) Antiinflammatory activity against mouse RAW264.7 cells assessed as reduction of LPS-induced TNF-alpha production
# [2] = tested on: RAW264.7; experiment: cells; conditions: Mus musculus; remark: listed apart in the source
# Description: Antiinflammatory activity against mouse RAW264.7 cells assessed as reduction of LPS-induced NO production
# [3] = target: T1, Receptor-type tyrosine-protein kinase FLT3 (Homo sapiens, UniProt P36888)
# T1 sequence (P36888 whole entry): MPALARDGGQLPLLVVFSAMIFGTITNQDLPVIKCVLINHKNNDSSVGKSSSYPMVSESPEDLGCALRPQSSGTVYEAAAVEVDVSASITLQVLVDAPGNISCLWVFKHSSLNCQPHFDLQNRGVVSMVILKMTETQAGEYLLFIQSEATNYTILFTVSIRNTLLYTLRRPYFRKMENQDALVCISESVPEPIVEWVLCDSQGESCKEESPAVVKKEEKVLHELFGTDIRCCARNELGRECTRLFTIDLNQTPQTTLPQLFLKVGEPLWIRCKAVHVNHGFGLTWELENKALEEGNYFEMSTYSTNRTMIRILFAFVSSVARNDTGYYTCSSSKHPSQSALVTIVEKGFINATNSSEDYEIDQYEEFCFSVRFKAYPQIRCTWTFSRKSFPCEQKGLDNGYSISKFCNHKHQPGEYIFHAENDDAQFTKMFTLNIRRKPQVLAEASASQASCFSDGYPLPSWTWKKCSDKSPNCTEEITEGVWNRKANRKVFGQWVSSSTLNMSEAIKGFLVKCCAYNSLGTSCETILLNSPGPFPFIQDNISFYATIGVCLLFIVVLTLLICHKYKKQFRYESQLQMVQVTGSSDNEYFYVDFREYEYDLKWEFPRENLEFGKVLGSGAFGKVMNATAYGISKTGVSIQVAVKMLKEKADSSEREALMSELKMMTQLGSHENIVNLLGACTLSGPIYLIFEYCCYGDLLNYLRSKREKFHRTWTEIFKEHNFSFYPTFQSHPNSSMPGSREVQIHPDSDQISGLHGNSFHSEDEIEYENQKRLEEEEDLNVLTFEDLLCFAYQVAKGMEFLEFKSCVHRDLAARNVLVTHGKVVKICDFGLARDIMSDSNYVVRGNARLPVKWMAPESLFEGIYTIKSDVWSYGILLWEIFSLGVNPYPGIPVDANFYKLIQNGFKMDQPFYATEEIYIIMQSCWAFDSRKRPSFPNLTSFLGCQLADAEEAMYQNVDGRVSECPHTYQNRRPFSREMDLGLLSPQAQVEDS
# Description: Inhibition of FLT3 kinase (unknown origin)
# [4] = target: T2, Inhibitor of nuclear factor kappa-B kinase subunit beta (Homo sapiens, UniProt O14920)
# T2 sequence (O14920 whole entry): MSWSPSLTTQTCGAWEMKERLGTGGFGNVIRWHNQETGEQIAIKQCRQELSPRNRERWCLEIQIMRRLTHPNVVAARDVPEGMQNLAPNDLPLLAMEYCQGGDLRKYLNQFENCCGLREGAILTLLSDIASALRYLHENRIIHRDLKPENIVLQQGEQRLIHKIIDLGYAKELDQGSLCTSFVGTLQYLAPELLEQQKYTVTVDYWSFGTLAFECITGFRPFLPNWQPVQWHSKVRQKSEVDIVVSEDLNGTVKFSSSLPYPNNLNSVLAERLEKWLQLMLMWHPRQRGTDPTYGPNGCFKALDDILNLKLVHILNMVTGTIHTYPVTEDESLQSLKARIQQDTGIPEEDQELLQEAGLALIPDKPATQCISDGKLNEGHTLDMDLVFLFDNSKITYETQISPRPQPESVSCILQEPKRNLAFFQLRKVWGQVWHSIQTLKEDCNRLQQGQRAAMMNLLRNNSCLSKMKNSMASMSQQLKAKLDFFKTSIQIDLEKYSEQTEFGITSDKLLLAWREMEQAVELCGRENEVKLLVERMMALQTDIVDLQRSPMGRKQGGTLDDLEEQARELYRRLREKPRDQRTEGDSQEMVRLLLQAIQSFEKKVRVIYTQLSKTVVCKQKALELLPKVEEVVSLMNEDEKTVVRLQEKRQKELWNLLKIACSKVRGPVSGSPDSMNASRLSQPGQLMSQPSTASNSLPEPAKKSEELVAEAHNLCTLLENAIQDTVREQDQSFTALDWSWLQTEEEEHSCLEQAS
# Description: (§2) Inhibition of IKKbeta kinase (unknown origin) by Radioisotope system
# [5] = tested on: RAW264.7
# Description: as §1
# [6] = target: T2, Inhibitor of nuclear factor kappa-B kinase subunit beta; remark: listed apart in the source
# Description: as §2
smiles,measurement,setting,value
COc1ccc(-c2nc(NN3C(=O)C=C(C)C3=O)c3c(-c4cccs4)csc3n2)cc1,IC50,[1],1390 nM
same,IC50,[2],2790 nM
COc1cccc(-c2nc(NN3C(=O)C=C(C)C3=O)c3c(-c4cccs4)csc3n2)c1,IC50,[1],1240 nM
same,IC50,[2],3470 nM
CC1=CC(=O)N(Nc2nc(-c3cccs3)nc3scc(-c4cccc(O)c4)c23)C1=O,IC50,[3],488 nM
same,IC50,[4],Not Active
same,IC50,[1],2670 nM
same,IC50,[2],1230 nM
O=C1c2ccncc2C(=O)N1Nc1ncnc2scc(-c3cccs3)c12,IC50,[5],Not Active
same,IC50,[2],> 10000 nM
CC1=CC(=O)N(Nc2nc(-c3ccncc3)nc3scc(-c4cccs4)c23)C1=O,IC50,[1],> 10000 nM
same,IC50,[2],2110 nM
CC1=CC(=O)N(Nc2nc(-c3cccs3)nc3scc(-c4cccc(OCCN5CCOCC5)c4)c23)C1=O,IC50,[3],540 nM
same,IC50,[6],> 50000 nM
same,IC50,[1],2380 nM
same,IC50,[2],3260 nM
CC1=CC(=O)N(Nc2ncnc3scc(-c4cccs4)c23)C1=O,IC50,[1],> 10000 nM
same,IC50,[2],2490 nM
COc1cccc2nc(-c3cccs3)nc(NN3C(=O)C=C(C)C3=O)c12 [AS-602868],IC50,[1],3320 nM
same,IC50,[2],4410 nM
CC1=CC(=O)N(Nc2nc(-c3cccs3)nc3scc(-c4ccc(O)cc4)c23)C1=O,IC50,[3],750 nM
same,IC50,[4],Not Active
same,IC50,[1],1320 nM
same,IC50,[2],820 nM
CC1=CC(=O)N(Nc2nc(C3CC3)nc3scc(-c4cccs4)c23)C1=O,IC50,[1],4350 nM
same,IC50,[2],3120 nM
CC1=CC(=O)N(Nc2nc(-c3ccccc3)nc3scc(-c4cccs4)c23)C1=O,IC50,[1],1130 nM
same,IC50,[2],3130 nM
